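Each compound was tested at five concentrations against cells in 96-well plates for 48 hours. GI50 = concentration required for 50% inhibition of growth. TGI marks complete inhibition of growth.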
Columns and labels:
Experiment in all cases: NCI anticancer screen, dose series, 48 h
LOX IMVI melanoma = tested on: LOX IMVI melanoma
MDA-MB-231 breast = tested on: MDA-MB-231 breast
SN12C renal = tested on: SN12C renal
HT29 colon = tested on: HT29 colon
IGROV1 ovarian = tested on: IGROV1 ovarian
786-0 renal = tested on: 786-0 renal
BT-549 breast = tested on: BT-549 breast
RXF 393 renal = tested on: RXF 393 renal
SNB-19 CNS = tested on: SNB-19 CNS
HCT-116 colon = tested on: HCT-116 colon
M14 melanoma = tested on: M14 melanoma
SF-539 CNS = tested on: SF-539 CNS
SK-MEL-28 melanoma = tested on: SK-MEL-28 melanoma
K-562 leukemia = tested on: K-562 leukemia
MOLT-4 leukemia = tested on: MOLT-4 leukemia
OVCAR-4 ovarian = tested on: OVCAR-4 ovarian
RPMI-8226 leukemia = tested on: RPMI-8226 leukemia
EKVX NSCLC = tested on: EKVX NSCLC
COLO 205 colon = tested on: COLO 205 colon
T-47D breast = tested on: T-47D breast
NCI-H522 lung = tested on: NCI-H522 lung
OVCAR-3 ovarian = tested on: OVCAR-3 ovarian
HOP-62 NSCLC = tested on: HOP-62 NSCLC
SK-MEL-5 melanoma = tested on: SK-MEL-5 melanoma
KM12 colon = tested on: KM12 colon
HOP-92 NSCLC = tested on: HOP-92 NSCLC
SK-MEL-2 melanoma = tested on: SK-MEL-2 melanoma
HCC-2998 colon = tested on: HCC-2998 colon
SNB-75 CNS = tested on: SNB-75 CNS
SK-OV-3 ovarian = tested on: SK-OV-3 ovarian
NCI-H226 lung = tested on: NCI-H226 lung
UACC-62 melanoma = tested on: UACC-62 melanoma
SF-295 CNS = tested on: SF-295 CNS
CCRF-CEM leukemia = tested on: CCRF-CEM leukemia
UO-31 renal = tested on: UO-31 renal
OVCAR-8 ovarian = tested on: OVCAR-8 ovarian
PC-3 prostate = tested on: PC-3 prostate
NCI-H23 lung = tested on: NCI-H23 lung
MALME-3M melanoma = tested on: MALME-3M melanoma
SF-268 CNS = tested on: SF-268 CNS
CAKI-1 renal = tested on: CAKI-1 renal
U251 CNS = tested on: U251 CNS
A549 NSCLC = tested on: A549 NSCLC
MCF7 breast = tested on: MCF7 breast
UACC-257 melanoma = tested on: UACC-257 melanoma
SW-620 colon = tested on: SW-620 colon
HS 578T breast = tested on: HS 578T breast
DU-145 prostate = tested on: DU-145 prostate
OVCAR-5 ovarian = tested on: OVCAR-5 ovarian
NCI/ADR-RES ovarian = tested on: NCI/ADR-RES ovarian
TK-10 renal = tested on: TK-10 renal
A498 renal = tested on: A498 renal
HL-60(TB) leukemia = tested on: HL-60(TB) leukemia
ACHN renal = tested on: ACHN renal
SR leukemia = tested on: SR leukemia
NCI-H460 lung = tested on: NCI-H460 lung
HCT-15 colon = tested on: HCT-15 colon
MDA-MB-435 = tested on: MDA-MB-435

## O=S(=O)(Nc1ccc(Cl)cc1)c1ccc(-c2cnc(C3CC3)o2)cc1
LOX IMVI melanoma
  GI50: 0.595 µM
  TGI: 18.6 µM
MDA-MB-231 breast
  GI50: 1.67 µM
  TGI: 15.1 µM
SN12C renal
  GI50: 1.09 µM
  TGI: 19.5 µM
HT29 colon
  GI50: 0.414 µM
  TGI: 14.4 µM
IGROV1 ovarian
  GI50: 637 nM
  TGI: 15.2 µM
786-0 renal
  GI50: 1.67 µM
  TGI: 20.2 µM
BT-549 breast
  GI50: 0.637 µM
  TGI: 21.4 µM
RXF 393 renal
  GI50: 0.683 µM
  TGI: 4.98 µM
SNB-19 CNS
  GI50: 847 nM
  TGI: 18.2 µM
HCT-116 colon
  GI50: 413 nM
  TGI: 15.9 µM
M14 melanoma
  GI50: 0.406 µM
  TGI: 16.9 µM
SF-539 CNS
  GI50: 0.513 µM
  TGI: 3.43 µM
SK-MEL-28 melanoma
  GI50: 5.72 µM
  TGI: 21.9 µM
K-562 leukemia
  GI50: 0.353 µM
  TGI: > 75 µM
MOLT-4 leukemia
  GI50: 0.786 µM
  TGI: 41.3 µM
OVCAR-4 ovarian
  GI50: 2640 nM
  TGI: 17.9 µM
RPMI-8226 leukemia
  GI50: 1.06 µM
  TGI: 22.7 µM
EKVX NSCLC
  GI50: 2.13 µM
  TGI: 18.8 µM
COLO 205 colon
  GI50: 1270 nM
  TGI: 10 µM
T-47D breast
  GI50: 860 nM
  TGI: 17.4 µM
NCI-H522 lung
  GI50: 0.367 µM
  TGI: 11.1 µM
OVCAR-3 ovarian
  GI50: 372 nM
  TGI: 3.73 µM
HOP-62 NSCLC
  GI50: 0.791 µM
  TGI: 18.6 µM
SK-MEL-5 melanoma
  GI50: 0.768 µM
  TGI: 12.8 µM
KM12 colon
  GI50: 0.431 µM
  TGI: 16.2 µM
HOP-92 NSCLC
  GI50: 1.81 µM
  TGI: 18.1 µM
SK-MEL-2 melanoma
  GI50: 0.766 µM
  TGI: 21.2 µM
HCC-2998 colon
  GI50: 2.02 µM
  TGI: 15.3 µM
SNB-75 CNS
  GI50: 0.191 µM
  TGI: 1540 nM
SK-OV-3 ovarian
  GI50: 2.07 µM
  TGI: 15.6 µM
NCI-H226 lung
  GI50: 4860 nM
  TGI: 23.1 µM
UACC-62 melanoma
  GI50: 584 nM
  TGI: 13.7 µM
SF-295 CNS
  GI50: 425 nM
  TGI: 12.5 µM
CCRF-CEM leukemia
  GI50: 0.564 µM
  TGI: 19.9 µM
UO-31 renal
  GI50: 1.14 µM
  TGI: 15.5 µM
OVCAR-8 ovarian
  GI50: 2.54 µM
  TGI: 22.4 µM
PC-3 prostate
  GI50: 1 µM
  TGI: 15.5 µM
NCI-H23 lung
  GI50: 2.28 µM
  TGI: 16.4 µM
MALME-3M melanoma
  GI50: 0.743 µM
  TGI: 20.3 µM
SF-268 CNS
  GI50: 1.85 µM
  TGI: 23 µM
CAKI-1 renal
  GI50: 0.586 µM
  TGI: 16.5 µM
U251 CNS
  GI50: 0.659 µM
  TGI: 17.6 µM
A549 NSCLC
  GI50: 1.49 µM
  TGI: 22.3 µM
MCF7 breast
  GI50: 383 nM
  TGI: 15 µM
UACC-257 melanoma
  GI50: 8.36 µM
  TGI: 28.8 µM
SW-620 colon
  GI50: 0.378 µM
  TGI: 14 µM
HS 578T breast
  GI50: 0.372 µM
  TGI: 6.86 µM
DU-145 prostate
  GI50: 2.06 µM
  TGI: 15.3 µM
OVCAR-5 ovarian
  GI50: 3690 nM
  TGI: 17.9 µM
NCI/ADR-RES ovarian
  GI50: 0.41 µM
  TGI: 8.94 µM
TK-10 renal
  GI50: 6.49 µM
  TGI: 21.9 µM
A498 renal
  GI50: 168 nM
  TGI: 732 nM
HL-60(TB) leukemia
  GI50: 0.388 µM
  TGI: 8.58 µM
ACHN renal
  GI50: 1.25 µM
  TGI: 18.1 µM
SR leukemia
  GI50: 0.21 µM
  TGI: 28.5 µM
NCI-H460 lung
  GI50: 395 nM
  TGI: 7.28 µM
HCT-15 colon
  GI50: 0.368 µM
  TGI: 15.1 µM
MDA-MB-435
  GI50: 0.15 µM
  TGI: 511 nM

## CCCN(CCC)c1ccc(CO)c(Cl)c1
LOX IMVI melanoma
  GI50: 30.4 µM
  TGI: > 100 µM
MDA-MB-231 breast
  GI50: 31.6 µM
  TGI: > 68.4 µM
SN12C renal
  GI50: 39.2 µM
  TGI: > 100 µM
HT29 colon
  GI50: 9.75 µM
  TGI: > 52.4 µM
IGROV1 ovarian
  GI50: 401 nM
  TGI: 2.41 µM
786-0 renal
  GI50: 16.8 µM
  TGI: 45.6 µM
BT-549 breast
  GI50: 22 µM
  TGI: > 60.2 µM
RXF 393 renal
  GI50: 7.37 µM
  TGI: 29.5 µM
SNB-19 CNS
  GI50: > 63800 nM
  TGI: > 100 µM
HCT-116 colon
  GI50: 440 nM
  TGI: 7.88 µM
M14 melanoma
  GI50: 37.5 µM
  TGI: 97.4 µM
SF-539 CNS
  GI50: 40.2 µM
  TGI: > 100 µM
SK-MEL-28 melanoma
  GI50: 42.5 µM
  TGI: > 100 µM
K-562 leukemia
  GI50: 6.21 µM
  TGI: 37.7 µM
MOLT-4 leukemia
  GI50: 23.3 µM
  TGI: 62.6 µM
OVCAR-4 ovarian
  GI50: 1210 nM
  TGI: 7.79 µM
RPMI-8226 leukemia
  GI50: 5.93 µM
  TGI: 28.9 µM
EKVX NSCLC
  GI50: 18.2 µM
  TGI: 59 µM
COLO 205 colon
  GI50: 3500 nM
  TGI: 10.1 µM
T-47D breast
  GI50: 459 nM
  TGI: 2.91 µM
NCI-H522 lung
  GI50: 16.4 µM
  TGI: 38.9 µM
OVCAR-3 ovarian
  GI50: 1620 nM
  TGI: 5.07 µM
HOP-62 NSCLC
  GI50: 8.25 µM
  TGI: > 100 µM
SK-MEL-5 melanoma
  GI50: 12.9 µM
  TGI: 27.3 µM
KM12 colon
  GI50: 35 µM
  TGI: > 100 µM
HOP-92 NSCLC
  GI50: 9.43 µM
  TGI: 31.2 µM
SK-MEL-2 melanoma
  GI50: 9.47 µM
  TGI: 33.9 µM
HCC-2998 colon
  GI50: 13.5 µM
  TGI: 48.2 µM
SNB-75 CNS
  GI50: 25.8 µM
  TGI: > 96700 nM
SK-OV-3 ovarian
  GI50: 31.3 µM
  TGI: > 100 µM
NCI-H226 lung
  GI50: 166 nM
  TGI: 0.419 µM
UACC-62 melanoma
  GI50: 485 nM
  TGI: 4.79 µM
SF-295 CNS
  GI50: 5450 nM
  TGI: > 78.9 µM
CCRF-CEM leukemia
  GI50: 17.4 µM
  TGI: 51.7 µM
UO-31 renal
  GI50: 35.4 µM
  TGI: > 100 µM
OVCAR-8 ovarian
  GI50: 34.9 µM
  TGI: > 100 µM
PC-3 prostate
  GI50: 22.8 µM
  TGI: 89.6 µM
NCI-H23 lung
  GI50: 23.2 µM
  TGI: > 100 µM
MALME-3M melanoma
  GI50: 29.1 µM
  TGI: > 78.5 µM
SF-268 CNS
  GI50: 47.3 µM
  TGI: > 100 µM
CAKI-1 renal
  GI50: 5.77 µM
  TGI: 50.6 µM
U251 CNS
  GI50: 10.3 µM
  TGI: > 100 µM
A549 NSCLC
  GI50: 7.2 µM
  TGI: > 63 µM
MCF7 breast
  GI50: 1230 nM
  TGI: 33 µM
UACC-257 melanoma
  GI50: 0.352 µM
  TGI: 1.49 µM
SW-620 colon
  GI50: 6.41 µM
  TGI: > 100 µM
HS 578T breast
  GI50: 25 µM
  TGI: > 91.9 µM
DU-145 prostate
  GI50: 52 µM
  TGI: > 100 µM
OVCAR-5 ovarian
  GI50: 257 nM
  TGI: 0.718 µM
NCI/ADR-RES ovarian
  GI50: 23.6 µM
  TGI: > 89.7 µM
TK-10 renal
  GI50: 0.223 µM
  TGI: 0.663 µM
A498 renal
  GI50: 117 nM
  TGI: 253 nM
HL-60(TB) leukemia
  GI50: 19.5 µM
  TGI: 44.6 µM
ACHN renal
  GI50: 38.5 µM
  TGI: > 100 µM
SR leukemia
  GI50: 19.3 µM
  TGI: 45.9 µM
NCI-H460 lung
  GI50: 2130 nM
  TGI: 32.1 µM
HCT-15 colon
  GI50: 20.4 µM
  TGI: > 80.9 µM
MDA-MB-435
  GI50: 37.1 µM
  TGI: > 100000 nM
